Legend:
[1] = Pro-drug conversion to active moiety in human plasma; format: in vitro ADME
[2] = test system: Calu-6 human lung tumour xenografts; experiment: In vivo combination study in the Calu-6 human lung cancer xenograft model (tumour growth inhibition); set-up: species or system female athymic mice (Swiss nu/nu genotype); details: Day 35; AZD1152 150 mg/kg/day s.c. infusion 2 days; AZD6244 25 mg/kg twice daily oral 14 days; 24 h gap in sequences
Experimental: To establish the in vivo efficacy of combination therapy of AZD1152 and AZD6244 in Calu-6 human lung xenograft model, experiments were conducted in female athymic mice (Swiss nu/nu genotype, ≧6 weeks of age). Calu-6 human lung tumour xenografts were established in mice by injecting 1×10^6 cells (100 μl volume containing 50% Matrigel®) subcutaneously in the dorsal flank. Tumour volumes were assessed using bilateral Vernier calliper measurement at least twice weekly and calculated using the formula (length×width)×√(length×width)×(π/6), where length was taken to be the longest diameter across the tumour and width the corresponding perpendicular. Mice were randomised into 4 treatment groups (10 mice/group) when the mean tumour volume reached approximately 0.2 cm^3. Following randomisation, mice were treated with drug vehicles for AZD1152 or AZD6244, AZD1152, AZD6244 or a combination of AZD1152 plus AZD6244 according to treatment schedules described below: […]
Tumour growth inhibition was assessed by comparison of the differences in tumour volume between control and treated groups on Day 35 of the study. The effects of combination treatment sequence were assessed by comparing any effect on tumour growth in the group of animals receiving AZD1152 and AZD6244 with tumour growth in the groups where animals received single agent therapy alone. […]

Compound	conversion of pro-drug to the active moiety AZD1152 HQPA [1]	growth inhibition of Calu-6 tumours compared to the vehicle-dosed group [2]
CCN(CCCOc1ccc2c(Nc3cc(CC(=O)Nc4cccc(F)c4)n[nH]3)ncnc2c1)CCOP(=O)(O)O [AZD1152, 2-{[3-({4-[(5-{2-[(3-fluorophenyl)amino]-2-oxoethyl}-1H-pyrazol-3-yl)amino]quinazolin-7-yl}oxy)propyl](ethyl)amino}ethyl dihydrogen phosphate]	rapidly and completely converted	94.7%
Cn1cnc2c(F)c(Nc3ccc(Br)cc3Cl)c(C(=O)NOCCO)cc21 [AZD6244, 6-(4-Bromo-2-chloro-phenylamino)-7-fluoro-3-methyl-3H-benzoimidazole-5-carboxylic acid (2-hydroxy-ethoxy)-amide]		57.8%

Reference: US20100004247A1, “COMBINATION COMPRISING A MEK INHIBITOR AND AN AURORA KINASE INHIBITOR 188” (AstraZeneca AB, priority 2007, published 2010)
